Assay results: PMC5514153, “Targeting PTPRZ inhibits stem cell-like properties and tumorigenicity in glioblastoma cells” (Scientific Reports, 2017)

Test system: PTPRZ1 M1902F, M1902H
Experiment: Inhibitor sensitivity of point mutants PTPRZ1 M1902F and M1902H
Format: biochemical, human
Conditions: 10 µM, vs wild-type PTPRZ1
Source text: Figure 5 Structural basis for PTPRZ inhibition of NAZ2329. (A) An enlarged view of the X-ray structure of human PTPRZ1-D1 complexed with NAZ2329 (PDB ID: 5H08) (left), X-ray structure of the apo (open) form of PTPRZ1-D1 (PDB ID: 5AWX, ref. [6], middle) and a computer-modeled structure of the closed form of PTPRZ1-D1 complexed with a competitive inhibitor, SCB4380 (ref. [6], right), are shown. PTPRZ1-D1 is shown as a gray surface representation, in which Cys1933 at the active site and Val-1911 at the bottom of the allosteric pocket are indicated in red and yellow, respectively. Inhibitors are colored according to the atomic species in a stick figure representation as follows: oxygen (red), nitrogen (blue), sulfur (yellow), and carbon (green). The bottom figures show the conformation of the WPD loop (orange) as cartoon representations, in which Asp1901 and Cys1933 are indicated by orange and red spheres, respectively. Side chains of Arg1939 at the active site, Met1902 in the WPD loop, and Val-1911 at the bottom of the allosteric binding area are also shown in the stick representation. (B) LigPlot representation of the NAZ2329 interaction with PTPRZ1-D1. The predicted hydrogen bonds (broken black lines) and residues (red spoked arcs) involved in the hydrophobic interaction are shown. […]

CCOc1ccc(C(F)(F)F)cc1CSc1ccsc1C(=O)NS(=O)(=O)c1ccccc1 [NAZ2329]
effect of M1902F / M1902H substitution on sensitivity to inhibitor: did not affect the sensitivity to the inhibitor
